# Laboratory results from PubChem BioAssay (NCI).
# Values joined by “and” are separate entries in the source; they are usually repeats but may differ in a detail not shown here. Identical values can stand only once.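 These data come from cells grown in 96-well plates and exposed to compound for 48 hours at five concentrations. GI50 = concentration required for 50% inhibition of growth. Definition used: TGI = concentration required for complete inhibition of growth.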
# Columns and labels:
# Test in all cases: NCI tumour cell line growth inhibition, 48 h
# 786-0 renal = tested on: 786-0 renal
# BT-549 breast = tested on: BT-549 breast
# DMS 114 small cell lung = tested on: DMS 114 small cell lung
# HOP-18 NSCLC = tested on: HOP-18 NSCLC
# M14 melanoma = tested on: M14 melanoma
# MDA-MB-231 breast = tested on: MDA-MB-231 breast
# MDA-MB-435 = tested on: MDA-MB-435
# MDA-N = tested on: MDA-N
# P388/ADR leukemia = tested on: P388/ADR leukemia
# SR leukemia = tested on: SR leukemia
# T-47D breast = tested on: T-47D breast
# TK-10 renal = tested on: TK-10 renal
# A549 NSCLC = tested on: A549 NSCLC
# ACHN renal = tested on: ACHN renal
# CAKI-1 renal = tested on: CAKI-1 renal
# COLO 205 colon = tested on: COLO 205 colon
# DMS 273 small cell lung = tested on: DMS 273 small cell lung
# EKVX NSCLC = tested on: EKVX NSCLC
# HCC-2998 colon = tested on: HCC-2998 colon
# HCT-116 colon = tested on: HCT-116 colon
# HCT-15 colon = tested on: HCT-15 colon
# HL-60(TB) leukemia = tested on: HL-60(TB) leukemia
# HOP-62 NSCLC = tested on: HOP-62 NSCLC
# HT29 colon = tested on: HT29 colon
# IGROV1 ovarian = tested on: IGROV1 ovarian
# K-562 leukemia = tested on: K-562 leukemia
# KM12 colon = tested on: KM12 colon
# KM20L2 colon = tested on: KM20L2 colon
# LOX IMVI melanoma = tested on: LOX IMVI melanoma
# LXFL 529 NSCLC = tested on: LXFL 529 NSCLC
# M19-MEL melanoma = tested on: M19-MEL melanoma
# MALME-3M melanoma = tested on: MALME-3M melanoma
# MOLT-4 leukemia = tested on: MOLT-4 leukemia
# NCI-H226 lung = tested on: NCI-H226 lung
# NCI-H23 lung = tested on: NCI-H23 lung
# NCI-H460 lung = tested on: NCI-H460 lung
# NCI-H522 lung = tested on: NCI-H522 lung
# OVCAR-3 ovarian = tested on: OVCAR-3 ovarian
# OVCAR-4 ovarian = tested on: OVCAR-4 ovarian
# OVCAR-5 ovarian = tested on: OVCAR-5 ovarian
# OVCAR-8 ovarian = tested on: OVCAR-8 ovarian
# RPMI-8226 leukemia = tested on: RPMI-8226 leukemia
# RXF 393 renal = tested on: RXF 393 renal
# SF-268 CNS = tested on: SF-268 CNS
# SF-295 CNS = tested on: SF-295 CNS
# SK-MEL-2 melanoma = tested on: SK-MEL-2 melanoma
# SK-MEL-28 melanoma = tested on: SK-MEL-28 melanoma
# SK-MEL-5 melanoma = tested on: SK-MEL-5 melanoma
# SK-OV-3 ovarian = tested on: SK-OV-3 ovarian
# SN12C renal = tested on: SN12C renal
# SNB-19 CNS = tested on: SNB-19 CNS
# SNB-75 CNS = tested on: SNB-75 CNS
# SNB-78 CNS = tested on: SNB-78 CNS
# SW-620 colon = tested on: SW-620 colon
# U251 CNS = tested on: U251 CNS
# UACC-257 melanoma = tested on: UACC-257 melanoma
# UACC-62 melanoma = tested on: UACC-62 melanoma
# UO-31 renal = tested on: UO-31 renal
# XF 498 CNS = tested on: XF 498 CNS
# A498 renal = tested on: A498 renal
# CCRF-CEM leukemia = tested on: CCRF-CEM leukemia
# HOP-92 NSCLC = tested on: HOP-92 NSCLC
# RXF-631 renal = tested on: RXF-631 renal
# SF-539 CNS = tested on: SF-539 CNS
structure (smiles),measurement,setting,value
COC1C(O)CC(OC2CC(Oc3cc4cc5c(c(O)c4c(O)c3C)C(=O)[C@@H](OC3CC(OC4CC(OC6CC(C)(O)C(OC(C)=O)C(C)O6)C(O)C(C)O4)C(O)C(C)O3)[C@H]([C@H](OC)C(=O)[C@@H](O)[C@@H](C)O)C5)OC(C)C2OC(C)=O)OC1C (stereo partly drawn),GI50,786-0 renal,0.000213 µM
same,TGI,BT-549 breast,0.0597 nM
same,GI50,DMS 114 small cell lung,0.00328 µM
same,GI50,HOP-18 NSCLC,0.0164 nM
same,GI50,M14 melanoma,0.0189 nM
same,TGI,M14 melanoma,0.000105 µM
same,GI50,MDA-MB-231 breast,0.0101 µM
same,TGI,MDA-MB-231 breast,0.000467 µM and < 0.0234 µM
same,TGI,MDA-MB-435,0.000167 µM
same,TGI,MDA-N,0.000192 µM and < 0.0107 µM
same,GI50,P388/ADR leukemia,0.106 µM
same,TGI,P388/ADR leukemia,9.49 µM and 8.82 µM
same,GI50,SR leukemia,0.0252 nM
same,TGI,SR leukemia,0.000152 µM
same,GI50,T-47D breast,0.0356 nM
same,TGI,T-47D breast,0.00182 µM and < 0.215 µM
same,GI50,TK-10 renal,< 0.0155 µM
same,TGI,TK-10 renal,0.0033 µM
COc1ccc(C2C(Cl)C(=O)N2n2cnc3ccccc3c2=O)cc1OC (stereo not drawn),TGI,786-0 renal,> 100 µM
same,TGI,A549 NSCLC,> 100 µM
same,TGI,ACHN renal,> 100 µM
same,TGI,CAKI-1 renal,> 100 µM
same,TGI,COLO 205 colon,> 100 µM
same,TGI,DMS 114 small cell lung,> 100 µM
same,TGI,DMS 273 small cell lung,> 100 µM
same,TGI,EKVX NSCLC,> 100 µM
same,TGI,HCC-2998 colon,> 100 µM
same,TGI,HCT-116 colon,> 100 µM
same,TGI,HCT-15 colon,> 100 µM
same,TGI,HL-60(TB) leukemia,> 100 µM
same,TGI,HOP-18 NSCLC,> 100 µM
same,TGI,HOP-62 NSCLC,> 100 µM
same,TGI,HT29 colon,> 100 µM
same,TGI,IGROV1 ovarian,> 100 µM
same,TGI,K-562 leukemia,> 100 µM
same,TGI,KM12 colon,> 100 µM
same,TGI,KM20L2 colon,> 100 µM
same,TGI,LOX IMVI melanoma,> 100 µM
same,TGI,LXFL 529 NSCLC,> 100 µM
same,TGI,M14 melanoma,> 100 µM
same,TGI,M19-MEL melanoma,> 100 µM
same,TGI,MALME-3M melanoma,> 100 µM
same,TGI,MOLT-4 leukemia,> 100 µM
same,TGI,NCI-H226 lung,> 100 µM
same,TGI,NCI-H23 lung,> 100 µM
same,TGI,NCI-H460 lung,> 100 µM
same,TGI,NCI-H522 lung,> 100 µM
same,TGI,OVCAR-3 ovarian,> 100 µM
same,TGI,OVCAR-4 ovarian,> 100 µM
same,TGI,OVCAR-5 ovarian,> 100 µM
same,TGI,OVCAR-8 ovarian,> 100 µM
same,TGI,RPMI-8226 leukemia,> 100 µM
same,TGI,RXF 393 renal,> 100 µM
same,TGI,SF-268 CNS,> 100 µM
same,TGI,SF-295 CNS,> 100 µM
same,TGI,SK-MEL-2 melanoma,> 100 µM
same,TGI,SK-MEL-28 melanoma,> 100 µM
same,TGI,SK-MEL-5 melanoma,> 100 µM
same,TGI,SK-OV-3 ovarian,> 100 µM
same,TGI,SN12C renal,> 100 µM
same,TGI,SNB-19 CNS,> 100 µM
same,TGI,SNB-75 CNS,84.7 µM
same,TGI,SNB-78 CNS,> 100 µM
same,TGI,SR leukemia,> 100 µM
same,TGI,SW-620 colon,> 100 µM
same,TGI,TK-10 renal,> 100 µM
same,TGI,U251 CNS,> 100 µM
same,TGI,UACC-257 melanoma,> 100 µM
same,TGI,UACC-62 melanoma,> 100 µM
same,TGI,UO-31 renal,> 100 µM
same,TGI,XF 498 CNS,> 100 µM
Nc1nc2c(ncn2Cc2ccccc2CCO)c(=O)[nH]1,TGI,786-0 renal,> 100 µM
same,TGI,A498 renal,> 100 µM
same,TGI,A549 NSCLC,> 100 µM
same,TGI,ACHN renal,> 100 µM
same,TGI,CAKI-1 renal,> 100 µM
same,TGI,CCRF-CEM leukemia,> 100 µM
same,TGI,COLO 205 colon,> 100 µM
same,TGI,DMS 114 small cell lung,> 100 µM
same,TGI,DMS 273 small cell lung,> 100 µM
same,TGI,EKVX NSCLC,> 100 µM
same,TGI,HCC-2998 colon,> 100 µM
same,TGI,HCT-15 colon,> 100 µM
same,TGI,HL-60(TB) leukemia,> 100 µM
same,TGI,HOP-62 NSCLC,> 100 µM
same,TGI,HOP-92 NSCLC,> 100 µM
same,TGI,HT29 colon,> 100 µM
same,TGI,IGROV1 ovarian,> 100 µM
same,TGI,K-562 leukemia,> 100 µM
same,TGI,KM12 colon,> 100 µM
same,TGI,KM20L2 colon,> 100 µM
same,TGI,LOX IMVI melanoma,> 100 µM
same,TGI,LXFL 529 NSCLC,> 100 µM
same,TGI,M14 melanoma,> 100 µM
same,TGI,M19-MEL melanoma,> 100 µM
same,TGI,MALME-3M melanoma,> 100 µM
same,TGI,MOLT-4 leukemia,> 100 µM
same,TGI,NCI-H226 lung,> 100 µM
same,TGI,NCI-H23 lung,> 100 µM
same,TGI,NCI-H460 lung,> 100 µM
same,TGI,NCI-H522 lung,> 100 µM
same,TGI,OVCAR-3 ovarian,> 100 µM
same,TGI,OVCAR-4 ovarian,> 100 µM
same,TGI,OVCAR-5 ovarian,> 100 µM
same,TGI,OVCAR-8 ovarian,> 100 µM
same,TGI,RPMI-8226 leukemia,> 100 µM
same,TGI,RXF 393 renal,> 100 µM
same,TGI,RXF-631 renal,> 100 µM
same,TGI,SF-268 CNS,> 100 µM
same,TGI,SF-295 CNS,> 100 µM
same,TGI,SK-MEL-2 melanoma,> 100 µM
same,TGI,SK-MEL-28 melanoma,> 100 µM
same,TGI,SK-MEL-5 melanoma,> 100 µM
same,TGI,SK-OV-3 ovarian,> 100 µM
same,TGI,SN12C renal,> 100 µM
same,TGI,SNB-19 CNS,> 100 µM
same,TGI,SNB-75 CNS,> 100 µM
same,TGI,SW-620 colon,> 100 µM
same,TGI,TK-10 renal,> 100 µM
same,TGI,U251 CNS,> 100 µM
same,TGI,UACC-62 melanoma,> 100 µM
same,TGI,UO-31 renal,> 100 µM
same,TGI,XF 498 CNS,> 100 µM
Cc1c(C)c2cc3c(=O)ccoc3c(C)c2oc1=O,TGI,786-0 renal,> 100 µM
same,TGI,A498 renal,> 100 µM
same,TGI,A549 NSCLC,> 100 µM
same,TGI,ACHN renal,> 100 µM
same,TGI,CCRF-CEM leukemia,> 100 µM
same,TGI,COLO 205 colon,> 100 µM
same,TGI,DMS 114 small cell lung,> 100 µM
same,TGI,EKVX NSCLC,> 100 µM
same,TGI,HCC-2998 colon,> 100 µM
same,TGI,HCT-15 colon,> 100 µM
same,TGI,HL-60(TB) leukemia,> 100 µM
same,TGI,HOP-18 NSCLC,> 100 µM
same,TGI,HOP-62 NSCLC,> 100 µM
same,TGI,IGROV1 ovarian,> 100 µM
same,TGI,K-562 leukemia,> 100 µM
same,TGI,KM12 colon,> 100 µM
same,TGI,KM20L2 colon,> 100 µM
same,TGI,LOX IMVI melanoma,> 100 µM
same,TGI,LXFL 529 NSCLC,> 100 µM
same,TGI,M14 melanoma,> 100 µM
same,TGI,M19-MEL melanoma,> 100 µM
same,TGI,MALME-3M melanoma,> 100 µM
same,TGI,MOLT-4 leukemia,92.7 µM
same,TGI,NCI-H226 lung,> 100 µM
same,TGI,NCI-H23 lung,> 100 µM
same,TGI,NCI-H460 lung,> 100 µM
same,TGI,NCI-H522 lung,> 100 µM
same,TGI,OVCAR-3 ovarian,> 100 µM
same,TGI,OVCAR-5 ovarian,> 100 µM
same,TGI,OVCAR-8 ovarian,> 100 µM
same,TGI,RPMI-8226 leukemia,> 100 µM
same,TGI,RXF 393 renal,> 100 µM
same,TGI,RXF-631 renal,> 100 µM
same,TGI,SF-268 CNS,> 100 µM
same,TGI,SF-295 CNS,> 100 µM
same,TGI,SF-539 CNS,> 100 µM
same,TGI,SK-MEL-2 melanoma,> 100 µM
same,TGI,SK-MEL-28 melanoma,> 100 µM
same,TGI,SK-MEL-5 melanoma,> 100 µM
same,TGI,SK-OV-3 ovarian,> 100 µM
same,TGI,SN12C renal,> 100 µM
same,TGI,SNB-19 CNS,> 100 µM
same,TGI,SNB-75 CNS,85.2 µM
same,TGI,SNB-78 CNS,> 100 µM
same,TGI,SW-620 colon,> 100 µM
same,TGI,TK-10 renal,> 100 µM
same,TGI,U251 CNS,> 100 µM
same,TGI,UACC-257 melanoma,> 100 µM
same,TGI,UACC-62 melanoma,> 100 µM
same,TGI,UO-31 renal,> 100 µM
